In patent publication EP0497921B1, “METHOD FOR INHIBITING ENZYMATIC SYNTHESIS OF NUCLEIC ACIDS USING ISOPSORALENS” (ISAACS, Stephen T., priority 1989, dated 1991):
Marks after values point to notes of the source that are not given here.

How the values were obtained:
E. Coli DNA Polymerase = assay: Primer extension on site-specific 71-mer monoadduct template; type: biochemical; conditions: 37°C for 0, 5 or 15 minutes, PAGE, autoradiography
Source text: (§1) The sequences that are presented in Figure 26 describe several oligonucleotides that are used in the synthesis of either a normal 71-mer or the identical 71-mer containing a site-specifically placed psoralen or isopsoralen monoadduct. The 71-mer is a sub-sequence of the Human Immunodeficiency Virus (HIV) sequence. (An HIV DNA system is described in a co-pending application, Serial No. 225,725.) SK-39 is a primer oligonucleotide that is complementary to the 3' end of the 71-mers. This primer oligonucleotide can be extended on the 71-mer template to make a complementary strand of the 71-mer.
(§2) Preparation of 71-mers which contain site-specific monoadducts involves 1) preparation of different 15-mer monoadducts from the same unmodified 15-mer (HRI-42), and 2) ligation of the different 15-mer monoadducts to the same 56-mer "extender oligonucleotide" (HRI 102) using a 25-mer oligonucleotide (HRI-45) as a splint. The arrows in Figure 27 indicate the direction of synthesis, while the monoadduct is indicated by a short line that is perpendicular to the oligomer. While each of the 71-mer monoadducts contains the adduct at a base position that is greater than 56 bases from the 5' end, the precise position of the monoadduct is not meant to be indicated.
(§3) To prepare the 15-mer adducts, the 15-mer was incubated with a complementary 10-mer along with psoralen or isopsoralen under hybridization conditions. The mixture was then irradiated to provide the monoadducted 15-mer. While the invention is not dependent on knowing the precise mechanism of coupling, it has generally been believed that the 10-mer directs the isopsoralen to a single TpA site within the double-stranded helix formed by the 10-mer/15-mer hybrid. After isolation of an HPLC peak believed to contain the 15-mer with a single psoralen or isopsoralen monoadduct, these 15-mer monoadducts were ligated to a 56-mer extender in order to provide the monoadducted 71-mers for use as polymerase templates. The ligation reaction therefore utilized three oligonucleotides: the particular psoralen or isopsoralen monoadducted 15-mer, the 56-mer extender, and the 25-mer splint. The ligation complex was hybridized together then ligated. The ligated product was then isolated as a single band by denaturing PAGE.
(§4) To provide highly purified 71-mers which contain a single monoadduct, it was necessary to provide highly purified 15-mer monoadduct prior to the ligation step. This was accomplished by repurification of the HPLC purified monoadducted 15-mers by PAGE. In this way, essentially all the non-monoadducted 15-mer was removed prior to ligation. Separation of 15-mer monoadduct from unmodified 15-mer was readily accomplished by PAGE (while the same technique is not effective for separation of the corresponding unmodified 71-mer and monoadducted 71-mer sequences). In this manner, exceedingly pure monoadducted 71-mers were produced for the primer extension reactions; monoadducted 71-mers (as well as unmodified 71-mers) are used in template-dependent enzymatic extension experiments in examples 43-47 below.
(§5) In this experiment, monoadducted 71-mers (as well as unmodified 71-mers) were used in template-dependent enzymatic extension. AMIP, AMDMIP, and MIP 71-mer monoadducts were made as in Example 17. […] Note that the 3' end of the 71-mer (HRI 55) is complementary to the primer (SK-39) (see also Figure 26). Each of the extension experiments were run at 37°C for 0, 5 or 15 minutes. Each of the reactions were initiated by providing the templates and deoxyribonucleoside 5'-triphosphates (dATP, dGTP, dCTP, and dTTP are collective abbreviated as dNTPs), and by adding the particular polymerase last to start the reaction. For detection, the primer extension reaction utilized 5' ^32P-labelled primer. The reactions were stopped by adding EDTA. Analysis was by denaturing PAGE followed by autoradiography. […]

T4 Polymerase = assay: as above; type: biochemical; conditions: 37°C for 0, 5 or 15 minutes, PAGE, autoradiography
Source text: as §1, §2, §3, §4, §5

Klenow Polmerase = assay: as above; type: biochemical; conditions: 37°C for 0, 5 or 15 minutes, PAGE, autoradiography
Source text: as §1, §2, §3, §4, §5

Reverse Transcriptase = assay: as above; type: biochemical; conditions: 37°C for 0, 5 or 15 minutes, PAGE, autoradiography
Source text: as §1, §2, §3, §4, §5

500-mer = assay: Post-amplification sterilization: isopsoralen plus irradiation, reamplification of carryover; type: biochemical, lambda; conditions: CE-III 15 minutes, 500-mer PCR product, 30 cycles
Method: The two PCR targets used in these experiments were a 115-mer (SK-38/SK-39 HIV system) and a 500-mer. The 500-mer target is obtained from a PCR amplification of a lambda plasmid with primers PCR 01/02. This system is provided by Cetus/Perkin Elmer as a control in their commercial kits of PCR reagents (Catalogue No. N801-0055). For both of these systems equivalent copy numbers of each target were prepared in the following manner: An initial 30 cycle PCR reaction was carried out for each system with the appropriate primers and targets. Aliquots (approximately 10^5-10^6 target copies) of each of these reactions were transferred to a second set of PCR reactions. These second sets of PCR amplifications were carried out in the presence of α-^32P-dCTP, again for 30 cycles. Aliquots of these reactions were removed and counted by liquid scintillation counting. With these numbers, the specific activity of the α-32P-dCTP, and the sequence of each of the PCR product oligonucleotides (115-mer and 500-mer), the concentrations of each of the two PCR product oligonucleotides in the second set of PCR reaction tubes was determined. Both the 115-mer and the 500-mer concentrations were then adjusted to exactly 1 x 10^-8 M by the addition of additional Taq buffer. These stocks of equivalent copy number of PCR products were then used for further investigation. Each of the stock solutions then was subdivided into four reaction tubes. The reaction tubes were adjusted to contain the following: Tube 1, 100 µg/ml AMIP; Tube 2, 400 µg/ml AMIP; Tube 3, 100 µg/ml AMDMIP; and Tube 4, 400 µg/ml AMDMIP. Each of these samples were again split into two portions, one part being irradiated for 15 minutes at room temperature with the CE-III device and the other part kept in the dark. Serial dilutions of the irradiated and the unirradiated targets were then carried out on these samples for 30 cycles in the presence of α-32P-CTP. Aliquots of these samples were analyzed on denaturing polyacrylamide gels. The PCR product bands were visualized by autoradiography, cut, and counted in a liquid scintillation counter.

[1] = Solubility of photoreactive compounds in 1 X TE (optical density of filtrate); type: physicochemical; conditions: 1 x te
Method: The solubilities of AMIP, AMDMIP, DMIP, MIP and isopsoralen (IP) were determined experimentally according to the scheme set forth in Figure 5. To perform the solubility measurement, it was first necessary to establish known optical densities for a 1 µg/ml solution of each compound. These were determined by preparing either ethanolic or aqueous stocks of each compound at known concentrations in 1 x TE, then measuring the optical density of each solution. From this information, the absorption of a 1 µg/ml solution was computed. Alternatively, the extinction coefficient may be thus determined and used in the same fashion. In this manner, the following absorption data was collected:
Following this step, undissolved compound was removed by filtration using a 0.2 u nylon-66 syringe filter (Arco LC13; Gelman). The concentration of the remaining soluble compound was then determined by measuring the optical density of the filtrate and computing the solubility from the known optical density of a 1 µg/ml solution of that compound. The solubility of the compounds was thus determined to be as follows: […]

Sequence of E. Coli DNA Polymerase (P00582 whole entry): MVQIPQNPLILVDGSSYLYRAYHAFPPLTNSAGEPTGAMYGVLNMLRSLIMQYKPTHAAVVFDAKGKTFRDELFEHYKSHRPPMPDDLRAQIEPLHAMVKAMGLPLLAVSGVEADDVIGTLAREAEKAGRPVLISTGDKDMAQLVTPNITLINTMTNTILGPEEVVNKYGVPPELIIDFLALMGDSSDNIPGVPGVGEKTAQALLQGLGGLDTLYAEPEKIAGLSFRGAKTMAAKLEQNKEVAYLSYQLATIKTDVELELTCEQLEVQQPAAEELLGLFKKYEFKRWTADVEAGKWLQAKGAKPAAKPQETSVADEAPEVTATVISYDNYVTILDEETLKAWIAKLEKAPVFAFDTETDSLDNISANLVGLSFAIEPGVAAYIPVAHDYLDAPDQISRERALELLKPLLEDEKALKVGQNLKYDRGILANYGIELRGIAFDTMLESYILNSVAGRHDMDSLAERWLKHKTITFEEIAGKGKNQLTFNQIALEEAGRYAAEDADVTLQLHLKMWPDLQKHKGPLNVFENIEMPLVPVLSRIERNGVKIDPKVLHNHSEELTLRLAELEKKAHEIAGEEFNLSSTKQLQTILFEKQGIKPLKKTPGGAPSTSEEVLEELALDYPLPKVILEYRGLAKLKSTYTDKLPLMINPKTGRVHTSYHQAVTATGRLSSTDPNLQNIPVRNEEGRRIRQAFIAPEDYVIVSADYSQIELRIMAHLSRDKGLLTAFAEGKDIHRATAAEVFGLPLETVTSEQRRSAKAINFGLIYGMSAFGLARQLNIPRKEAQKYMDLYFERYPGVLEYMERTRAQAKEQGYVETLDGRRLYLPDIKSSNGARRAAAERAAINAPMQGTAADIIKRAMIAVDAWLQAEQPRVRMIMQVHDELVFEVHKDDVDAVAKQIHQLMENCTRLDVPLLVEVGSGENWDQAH

Row | Compound | polymerase stop at adduct (primer extension) (E. Coli DNA Polymerase) | polymerase stop at adduct (primer extension) (T4 Polymerase) | polymerase stop at adduct (primer extension) (Klenow Polmerase) | polymerase stop at adduct (primer extension) (Reverse Transcriptase) | sterilization sensitivity (molecules of carryover sterilized) (500-mer; 100 µg/ml) | sterilization sensitivity (molecules of carryover sterilized) (500-mer; 400 µg/ml) | Solubility in 1 X TE [1]
1 | Cc1cc2occc2c2oc(=O)ccc12 [MIP, 5-Methylisopsoralen] | not complete stops | complete stops | not complete stops | complete stops |  |  | 
2 | 5-Aminomethylisopsoralen [AMIP] | not complete stops | complete stops | not complete stops | complete stops | more effectively sterilized than the 115-mer PCR product | ≥ 6 x 10^9 molecules of carryover | 21,000 µg/ml
3 | 4'-Aminomethyl-4,5'-dimethylisopsoralen [AMDMIP] | complete stop | complete stop | complete stop | complete stop | ≥ 6 x 10^9 carryover molecules | no signal in the irradiated dilution series | > 22,700 * µg/ml
